Key:
[1] = Color retention after shampoo treatment, peptide as sealant with Acid Red 33 dye; design: species or system human; conditions: 0.50 wt % Acid Red 33, peptide 0.25 wt %, 30 min contact, after one shampoo treatment; vs uncolored hair; larger = better color retention; dye alone 19.63
Description: The peptides used in this Example were prepared as described in Examples 1-3. The color retention was quantified using a spectrophotometric measurement technique.
A peptide given as SEQ ID NO:41, SEQ ID NO:42, or SEQ ID NO:43 (38 mg), produced via fermentation as described in Examples 1-3, was added to 15 g of an aqueous 0.50 wt % solution of Acid Red 33 (Abbey Color, Philadelphia, Pa.) and the solution was allowed to stir for 1 h. A natural white hair tress (1 cm wide, potted, International Hair Importers & Products Inc., Bellerose, N.Y.) was inserted into a 15 mm×125 mm test tube and 13 mL of the peptide/dye mixture was injected into the test tube. The hair tress was immersed in contact with the colorant solution for 30 min and the colorant solution was agitated using a magnetic stirrer. The tress was removed, allowed to drip dry, and then air dried for 30 min.
The hair tress was then subjected to a water rinse using copious amounts of deionized water, followed by a shampoo treatment with embrocation for 30 seconds. The shampoo treatment involved the application of Pantene Pro-V Sheer Volume shampoo (Proctor & Gamble, Cincinnati, Ohio) to the hair as follows. A quarter-sized drop of the shampoo was distributed evenly over the hair tress and then was massaged aggressively into the hair for 30 sec, after which the hair tress was rinsed with water to remove the shampoo. The hair tress was then dried at room temperature. The entire procedure described above was repeated without the addition of the hair-binding peptide to serve as a control.
The color intensity after the shampoo treatment was measured using an X-Rite® SP78™ Sphere Spectrophotometer (X-Rite, Inc., Grandville, Mich.), by placing the colored hair sample into the photosensor and calculating L*, a* and b* parameters representing the photometer response. An initial baseline L* value was measured for the uncolored hair and all measurements were the average of three individual determinations. Delta E values were calculated using equation 1 below: […]

[2] = HPLC analysis of peptide uptake by hair; assay type: binding, human; conditions: no dye; for % Uptake time = 0 min / % Uptake time = 30 min / % Uptake time = 60 min: 20 mM Tris pH 7.2, 0.15 M NaCl, room temperature, peptide 0.1 mg/mL (IB5A, A5) or 0.05 mg/mL (HC 71, HC 74); for uptake onto hair compared with the same peptide without the charged groups (in words): HC 71 vs IB5, HC 74 vs A5
Description: The purpose of this Example was to compare the speed of uptake by measuring the amount of various peptides including peptides of the invention bound to hair at different time points using a high performance liquid chromatography (HPLC) method. The peptides, HC 71, HC 74, IB5 (the hair-binding peptide sequence in HC 71), and A5 (the hair-binding peptide sequence in HC 74), were dissolved in 10 mL of 20 mM Tris, pH 7.2 buffer containing 0.15 M NaCl to give the peptide concentrations shown in Table 11. Natural white hair, 0.54 g, (International Hair Importers & Products Inc., Bellerose, N.Y.) was pre-equilibrated with 10 mL of Tris buffer for 30 min with mixing at room temperature. Then, the buffer was drained from the hair and 10 mL of one of the peptide solutions was added. The hair was incubated with the peptide solution at room temperature without mixing and samples were taken at 0, 30 and 60 min for HPLC analysis. For peptide uptake measurements in the presence of Acid Red 33 dye, the peptide solution was mixed 1:1 with an aqueous solution of the dye (0.5 wt %). Natural white hair (0.65 g) pre-wet with deionized water, was added to the peptide solutions and the solutions were incubated at room temperature without mixing. Samples were taken at time 0, 30, and 60 min for analysis by HPLC. The samples were analyzed using HPLC to determine the concentration of the peptide remaining in solution, and by difference, the amount of peptide taken up by the hair. The HPLC analysis was done using an Agilent liquid chromatograph (Agilent Technologies Inc., Wilmington, Del.) with a 5 μm Zorbax Eclipse XDB-C18 column (Agilent Technologies Inc.). The sample was diluted with distilled water containing 0.1% trifluoroacetic acid (typically a 10-fold dilution), and 5 to 50 μL was injected using a 100 μL injection loop. A solvent gradient elution was used with two solvents: Solvent A, consisting of acetonitrile with 0.1% aqueous trifluoracetic acid, and Solvent B, consisting of water with 0.1% trifluoroacetic acid. The gradient was from 10% acetonitrile to 80% acetonitrile at a rate of 1%/min over a period of 70 min. The flow rate was 1.25 mL/min. Detection was done with a photodiode array detector at 218 nm, 230 nm, and 278 nm.

Substance	Delta E [1]	% Uptake time = 0 min [2] [%]	% Uptake time = 30 min [2] [%]	% Uptake time = 60 min [2] [%]	uptake onto hair compared with the same peptide without the charged groups (in words) [2]
P-EQISGSLVAAPW-KRKRK-D (PEQISGSLVAAPWKRKRKD; Peptide having affinity for hair) [HC 74]	28.68	0	22	27	significantly faster uptake onto hair
P-TPPELLHGAPRS-KRKRK-D (PTPPELLHGAPRSKRKRKD; Peptide having affinity for hair) [HC 71]	25.80	0	69	75	significantly faster uptake onto hair
